Data taken from article PMC9117324 (Scientific Reports, 2022).
Where “and” joins values, the source holds several entries; their conditions need not be identical. Equal values may be shown once.

How the values were obtained:
Caco-2 cells [1] = experiment: Cell cycle distribution by PI flow cytometry, Caco-2; format: cell-based, Human; conditions: Caco-2, IC50 concentration, 48 h
Experimental: (§1) Evaluation of cell cycle progression was performed by flow cytometry of propidium iodide and can identify the fraction of time spent by cells in various stages of the cell cycle. […] Cell cycle distribution was determined by flow cytometry by the protocol described previously. The control condition consisted of cells cultured in the absence of treatment but in the presence of PI. After harvesting the cells with trypsin, they were rinsed and fixed with 70% ethanol and kept for 3 days at 4 °C. Then, the samples were centrifuged, and after removal of supernatants […], the cells were dispersed in 300 µL of PBS. Next, after adding 10 µL of ribonuclease-A (10 mg/mL) and 45 min of incubation, 10 µL propidium iodide (1 mg/mL) was added to each of the samples and vortexed. After 10 min of incubation at room temperature and in the dark, the cells were examined by a FACSCalibur flow cytometer to estimate the cell cycle phases. FlowJo 7.6 software was used to analyze the cell cycle.

MCF-7 cells [2] = experiment: Annexin V-FITC/PI apoptosis flow cytometry, MCF-7; format: cell-based, Human; conditions: MCF-7, IC50 concentration, 48 h
Experimental: (§2) After washing the cells with cold PBS, they were resuspended in 100 µl binding buffer containing Annexin V-FITC (5 μL) and PI (5 μL) solution. After incubation for 15 min at room temperature, cells were washed and suspended in 100 μL of 1 × binding buffer. Cells were investigated by a FACSCanto II ([…]) flow cytometry system. The percentage of apoptotic cells was calculated by summation of the cells in (annexin V+ , PI−) and (annexin V+ , PI+) and the percentage of necrotic cells achieved from (annexin V−, PI+). An Annexin-V/PI assay was performed via flow cytometry to measure the percentage of cells with early and late apoptotic changes.

MCF-7 cells [3] = experiment: Cell cycle distribution by PI flow cytometry, MCF-7; format: cell-based, Human; conditions: MCF-7, IC50 concentration, 48 h
Experimental: as §1

Caco-2 cells [4] = experiment: Annexin V-FITC/PI apoptosis flow cytometry, Caco-2; format: cell-based, Human; conditions: Caco-2, IC50 concentration, 48 h
Experimental: as §2

A549 cells [5] = experiment: Annexin V-FITC/PI apoptosis flow cytometry, A549; format: cell-based, Human; conditions: A549, IC50 concentration, 48 h
Experimental: as §2

Caco-2 cells [6] = experiment: Western blot of apoptotic proteins; format: cell-based, Human; conditions: Caco-2, IC50 value, 48 h
Experimental: Assessment of apoptotic protein level alterations by western blot analysis by the protocol described previously. The control included cells without treatment. To provide the cell lysate, cells were collected and treated with the following materials: RIPA buffer [500 µL of Tris–HCl (pH = 8), one tablet of protease inhibitor cocktail, 0.003 g EDTA, 0.08 g NaCl, 0.025 g sodium deoxycholate, 0.01 g SDS and 10 µl of Triton NP40 (1%)] used at 4 °C. After that, the cells were centrifuged at 12,000 rpm for 10 min at 4 °C. To measure total protein, the supernatant of cells was determined by the Bradford assay (Bio–Rad protein assay, Bio–Rad Laboratories, USA) using a spectrophotometer (Bibby Scientific Ltd, Beacon Rd, UK). The portions of target protein received from the sodium dodecyl sulfate–polyacrylamide gel electrophoresis (SDS–PAGE) were carried over the polyvinylidene difluoride (PVDF) membrane and were blocked with TBST buffer containing 5% (w/v) skim milk (0.1% v/v Tween®20-tris buffered saline: TBST). The blocked PVDF membranes that contained the target proteins were incubated with specific primary antibodies: Bax (B-9) mouse monoclonal antibody (Santa Cruz) (1:1000), Bcl-2 sc-492 (Santa Cruz) rabbit monoclonal antibody (1:1000), caspase-7 (C7) (Cell Signaling) rabbit polyclonal antibody (1:1000), Caspase-3 Cell Signaling rabbit monoclonal antibody (1:1000), caspase-9 (Cell Signaling) rabbit polyclonal antibody (1:1000), GAPDH (Santa Cruz) mouse monoclonal antibody (1:1000) and P27 (Elabscience) rabbit polyclonal antibody (1:400) that were diluted with blocking buffer) overnight at 4 °C. The membrane was washed with TBST and incubated with secondary antibodies (m-IgGκ BP-HRP (Santa Cruz) for Bax (B-9), Bcl-2 and GAPDH, and mouse anti-rabbit IG-HRP (Santa Cruz) was used for Caspase-3, 7, 9 and P27, which were diluted using blocking buffer (1:1000).) for 1 h at room temperature. The target protein bands were visualized by an enhanced chemiluminescence detection kit (Thermo Fisher Scientific, Breda, the Netherlands) and Amersham® Imager 600 system (GE Healthcare Life Sciences, Eindhoven, Netherlands). Finally, the western blotting results were normalized to the expression of GAPDH as the loading control. All the protein bands were quantified by ImageJ software (v. 1.52n).

[7] = test system: MCF-7, A549 and Caco-2 cell lines; experiment: Real time PCR of apoptosis pathway genes; format: cell-based, Human; conditions: IC50 values, 48 h, GAPDH reference gene
Experimental: Then, the cells were rinsed with cold PBS and harvested. Total RNA was isolated from MCF-Z, A549, and Caco-2 cell lines by the TRIzol method (TRIzol™ Reagent (Invitrogen, Catalog number: 15596026)). Briefly, the cells were centrifuged at 500 g at 4 °C, the plates were processed for cell lysate by 750 μl of RiboEx; then 200 μl chloroform was subjoined to the cell lysate and after incubating for 2 min at room temperature, they were centrifuged at 12,000 g for 20 min (4 °C). Following collection of aqueous phases, one volume of isopropyl alcohol was dispensed for precipitation of total RNA at 12,000 g for 20 min (4 °C). The RNA plate was rinsed with 75% ethanol and dissolved in deep water. Complementary DNA (cDNA) synthesis was performed by Revert Aid Reverse Transcriptase (Cat numb: EP0441, Thermo Scientific, Lithuania) according to the manufacturer’s instructions. For evaluation of the apoptosis pathway genes, real time PCR was carried out based on the following PCR program[28]: initial denaturation at 95 °C for 15 min, 45 cycles of denaturation at 95 °C for 15 sec, and annealing/extension at 60 °C for 50 sec. The real time PCR mixture contained 5 μL 2x SYBR Green Master Mix (RealQ Plus 2x Master Mix Green, Ampliqon, Denmark), 2 μL cDNA, 0.5 μL of 5 pmol/μL primer pair mix (Eurofin, Germany), and 3 μL H2O. […]

[8] = test system: MCF-7 human breast cancer cells; experiment: MTT cell viability assay, MCF-7; format: cell-based
Experimental: (§3) All cancer cells were cultured in RPMI 1640 medium with 10% FBS in a humidified incubator of 95% air and 5% CO2 at 37 °C. […] Then, […] of MTT solution (5 mg/ml) was added to every well and kept at 37 °C for 4 h in the dark. After removing the medium, 200 µl DMSO was added, and the solution was kept on a shaker for approximately 15 min until the formazan solved completely. The absorbance was evaluated at 490 nm with an ELISA reader. The IC50 was computed by GraphPad Prism 7.0 software. […] All of cell lines were treated for three different duration times (24, 48 and 72 h). The Caco-2 cells were very sensitive to Pt(TSC)Cl in comparison with the two others in all three different durations of treatment. We also used cisplatin, a commercially available platinum-based compound, as a reference. […] Cell viability was assessed with MTT and is presented relative to untreated cells (set to 100%).

[9] = test system: A549 human lung cancer cells; experiment: MTT cell viability assay, A549; format: cell-based
Experimental: as §3

[10] = test system: Caco-2 human colon cancer cells; experiment: MTT cell viability assay, Caco-2; format: cell-based; conditions: for IC50: MTT
Experimental: as §3, with “h).” for “h). The Caco-2 cells were very sensitive to Pt(TSC)Cl in comparison with the two others in all three different durations of treatment. We also used cisplatin, a commercially available platinum-based compound, as a reference.”

A549 cells [11] = experiment: Cell cycle distribution by PI flow cytometry, A549; format: cell-based, Human; conditions: A549, IC50 concentration, 48 h
Experimental: as §1

[12] = test system: Hek293 human embryonic kidney cells; experiment: MTT cell viability assay, Hek293 (nephrotoxicity); format: cell-based; conditions: Hek293 normal kidney cells, 24 h
Experimental: All cancer cells were cultured in RPMI 1640 medium with 10% FBS in a humidified incubator of 95% air and 5% CO2 at 37 °C. […] Then, […] of MTT solution (5 mg/ml) was added to every well and kept at 37 °C for 4 h in the dark. After removing the medium, 200 µl DMSO was added, and the solution was kept on a shaker for approximately 15 min until the formazan solved completely. The absorbance was evaluated at 490 nm with an ELISA reader. The IC50 was computed by GraphPad Prism 7.0 software. […] Cell viability was assessed with MTT and is presented relative to untreated cells (set to 100%).

[Cl][Pt-2]12[S]C(Nc3ccccc3)=N[N+]1=Cc1cccc[n+]12 (stereo not drawn) [Pt(TSC)Cl complex, [Pt(TSC)Cl]]
G0/G1, percentage of cells (Caco-2 cells [1]): 30.34%
G2/M, percentage of cells (Caco-2 cells [1]): 5.08%
S, percentage of cells (Caco-2 cells [1]): 14.91%
SubG1, percentage of cells (Caco-2 cells [1]): ~51%
Early apoptosis (PI-/FITC+) cells (Q3) (MCF-7 cells [2]): 6.47%
Late apoptosis (PI+/FITC+) cells (Q2) (MCF-7 cells [2]): 23.8%
Necrosis (PI+/FITC-) cells (Q1) (MCF-7 cells [2]): 2.38%
Viable (PI-/FITC-) cells (Q4) (MCF-7 cells [2]): 67.3%
G0/G1, percentage of cells (MCF-7 cells [3]): 53.17%
G2/M, percentage of cells (MCF-7 cells [3]): 14.70%
S, percentage of cells (MCF-7 cells [3]): 28% and 27.72%
SubG1, percentage of cells (MCF-7 cells [3]): 4.95%
Late apoptosis (PI+/FITC+) cells (Q2) (Caco-2 cells [4]): 52.4%
Necrosis (PI+/FITC-) cells (Q1) (Caco-2 cells [4]): 4.79%
Viable (PI-/FITC-) cells (Q4) (Caco-2 cells [4]): 5.58%
Early apoptosis (PI-/FITC+) cells (Q3) (A549 cells [5]): 3.74%
Late apoptosis (PI+/FITC+) cells (Q2) (A549 cells [5]): 7.12%
Necrosis (PI+/FITC-) cells (Q1) (A549 cells [5]): 3.9%
Viable (PI-/FITC-) cells (Q4) (A549 cells [5]): 85.2%
percentage of apoptotic cells (early + late) (A549 cells [5]): 10.86%
Bcl2 protein levels (Caco-2 cells [6]): downregulation
Bax protein level, fold vs control group (Caco-2 cells [6]; normalized to GAPDH): 1.9 fold
caspase 3 protein level, fold vs control group (Caco-2 cells [6]; normalized to GAPDH): 1.97 fold
caspase 7 protein level, fold vs control group (Caco-2 cells [6]; normalized to GAPDH): 1.92 fold
caspase 9 protein level, fold vs control group (Caco-2 cells [6]; normalized to GAPDH): 3.2 fold
p27 protein, fold increase vs control group (Caco-2 cells [6]; normalized to GAPDH): 2.14 fold
expression of apoptotic pathway genes Bax and Caspases 9, 3 and 7 vs control [7]: upregulated
IC50 ([8]; MCF-7, 24 h): 200 µM
IC50 ([8]; MCF-7, 48 h): 193 µM
IC50 ([8]; MCF-7, 72 h): 181 µM
IC50 ([9]; A549, 24 h): 147 µM
IC50 ([9]; A549, 48 h): 102 µM
IC50 ([9]; A549, 72 h): 69.3 µM
IC50 ([10]; Caco-2, 24 h): 17200 nM
fold more toxicity than cisplatin ([10]; Caco-2, 48 h): 46 fold
IC50 ([10]; Caco-2, 48 h): 2300 nM
IC50 ([10]; Caco-2, 72 h): 1750 nM
G0/G1, percentage of cells (A549 cells [11]): 47.71%
G2/M, percentage of cells (A549 cells [11]): 15.66%
S, percentage of cells (A549 cells [11]): 13.94%
SubG1, percentage of cells (A549 cells [11]): 22% and 21.78%
IC50 [12]: 63.9 µM

N.N.[Cl][Pt][Cl] [cisplatin, reference compound]
Early apoptosis (PI-/FITC+) cells (Q3) (MCF-7 cells [2]): 8.48%
Late apoptosis (PI+/FITC+) cells (Q2) (MCF-7 cells [2]): 10.4%
Necrosis (PI+/FITC-) cells (Q1) (MCF-7 cells [2]): 3.24%
percentage of apoptotic cells (early + late) (MCF-7 cells [2]): 18.88%
G2/M, percentage of cells (MCF-7 cells [3]): 15.88%
S, percentage of cells (MCF-7 cells [3]): 37.2%
G0/G1, percentage of cells (MCF-7 cells [3]; listed as Cis): 37.21%
S, percentage of cells (MCF-7 cells [3]; listed as Cis): 37.43%
SubG1, percentage of cells (MCF-7 cells [3]; listed as Cis): 6.8%
Early apoptosis (PI-/FITC+) cells (Q3) (A549 cells [5]): 7.50%
Late apoptosis (PI+/FITC+) cells (Q2) (A549 cells [5]): 7.83%
Necrosis (PI+/FITC-) cells (Q1) (A549 cells [5]): 1.73%
percentage of apoptotic cells (early + late) (A549 cells [5]): 15.33%
IC50 ([8]; MCF-7, 24 h): 162 µM
IC50 ([8]; MCF-7, 48 h): 142 µM
IC50 ([8]; MCF-7, 72 h): 150 µM
IC50 ([9]; A549, 24 h): 96.8 µM
IC50 ([9]; A549, 48 h): 42.9 µM
IC50 ([9]; A549, 72 h): 13.1 µM
SubG1, percentage of cells (A549 cells [11]): 0.42%
G0/G1, percentage of cells (A549 cells [11]; listed as Cis): 66.94%
G2/M, percentage of cells (A549 cells [11]; listed as Cis): 16.08%
S, percentage of cells (A549 cells [11]; listed as Cis): 16.13%
IC50 [12]: 4.15 µM
